According to patent US10323254B2, “Method for regulating plant growth” (RIKEN, priority 2015, dated 2019):

Tested on: BSS1-GFP
Test: Fluorescence microscopy of punctate BSS1-GFP in transgenic seedlings
Format: in vivo, Arabidopsis thaliana
Conditions: root cells of BSS1-GFP plants treated with 50 μM BFA for 1 hour
Protocol: FIGS. 5C to 5E show analysis of BSS1-GFP puncta signal intensities upon treatment with Brz and BL. Seven-day-old BSS1-GFP transgenic seedlings were treated for 3 hours with 3 μM Brz (Brz), an equal volume of DMSO (Mock), or 100 μM BL (BL). […] The results are represented as the mean±s.d. The signal intensity was measured using ImageJ software. […]
The plants that were transformed with the CaMV35S-BSS1-GFP construct BSS1(-GFP)-OX and the CaMV35S-BIL1-GFP construct BIL1-GFP-OX were observed via confocal laser scanning microscopy with a BX60 fluorescence microscope (Olympus) equipped with a Model CSU10 confocal scanner (Yokogawa Electric) and LSM700 (Zeiss).
FM4-64 (Molecular Probes) dissolved in water was applied to Arabidopsis plants at a final concentration of 4 μM for 3 minutes. The plants were washed with water to remove the excessive amount of the stain and observed. A DMSO-base stock solution of Brefeldin A (BFA) (Sigma) was applied to the cells at a final concentration of 50 μM for 1 hour.
The images were analyzed using ImageJ software. To measure the ratio of the nuclear and cytosolic signals of BIL1-GFP for each cell, the signal intensities in the nucleus and cytosol were calculated from the mean of the intensity in each area. The nuclear to cytosolic signal ratio was then calculated for each cell. The average nuclear/cytosolic signal ratio and standard error were calculated from measurements of at least 54 cells from each line (FIG. 9B). Line scan measurements from the vacuole to the nucleus through the cytosol were performed, and representative plot profiles of sample measurements are presented in FIG. 5C.

C[C@H]1CCC/C=C/[C@@H]2C[C@H](O)C[C@H]2[C@H](O)/C=C/C(=O)O1 [BFA, Brefeldin A]
formation of punctate BSS1: not inhibited
